# According to patent US20240293558A1, “KRAS INHIBITOR CONJUGATES” (Erasca, Inc., priority 2021, published 2024):
# How the values were obtained:
# KRAS (WT) = biological target: T1, KRAS (WT) (Homo sapiens, UniProt P01116); assay: In-vitro RAS-RAF binding assay (RRB), HTRF/FRET; format: biochemical; conditions: Table 2, average of multiple runs of each compound; read-out: Inhibition of RAS-RAF Binding (in-vitro) KRAS (WT) IC50
# T1 construct: Biotinylated KRAS protein amino acids 1-169 (produced at Erasca); made in house
# T1 sequence (P01116 1-169 isoform P01116-2): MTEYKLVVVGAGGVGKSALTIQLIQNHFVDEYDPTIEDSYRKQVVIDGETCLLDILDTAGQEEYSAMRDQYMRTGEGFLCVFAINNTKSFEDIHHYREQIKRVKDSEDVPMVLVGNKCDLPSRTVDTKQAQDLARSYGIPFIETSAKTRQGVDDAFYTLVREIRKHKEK
# How it was run: (§1)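 Compounds preincubated with terbium-labelled biotinylated KRAS (aa 1-169, 30 nM) before 60 min SOS1-catalysed exchange to GTPgS. Binding of the d2-labelled cRAF RBD (30 nM) is read as FRET at equilibrium in duplicate. Buffer: 50 mM HEPES pH 7.5, 100 mM NaCl, 1 mM MgCl2, 1 mM DTT.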
# [1] = biological target: T2, KRas G12D fused to HiBiT peptide (Homo sapiens, UniProt P01116, G12D); assay: ASPC-1 HiBit assay to determine G12D degradation; format: cell-based; conditions: AsPC-1 HiBiT cells, 24-hour incubation; read-out: ASPC-1 HiBit DC50 (C)
# T2 construct: endogenous in cells; host or cells: AsPC-1 HiBiT knock-in single clone (Cas9 RNP + ssODN)
# T2 sequence (P01116 1-188 isoform P01116-2 G12D): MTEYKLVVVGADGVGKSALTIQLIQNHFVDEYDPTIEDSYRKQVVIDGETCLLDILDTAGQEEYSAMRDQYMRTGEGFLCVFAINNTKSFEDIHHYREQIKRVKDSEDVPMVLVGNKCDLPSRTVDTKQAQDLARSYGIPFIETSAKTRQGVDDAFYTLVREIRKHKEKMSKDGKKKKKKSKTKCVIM
# Procedure: Compounds presented herein induce degradation of the KRas G12D (KRasG12D) upon treatment of engineered cancer cell line.
# The degradation of the KRasG12D in cellular environment was measured using engineered homozygous KRasG12D AsPC-1 cell line in which KRas G12D was fused to luminescent HiBiT peptide at the N-terminal. The small (1.3 kDa) HiBiT peptide complements with high affinity to a larger (18 kDa) subunit evolved from NanoLuc (termed LgBiT). The resulting complex (i.e., reconstituted luciferase enzyme) generates bright luminescence that translates to high sensitivity (1 amol), broad dynamic range (four orders of magnitude), and rapid kinetics for real time quantitation.
# To generate HiBit KRasG12D knock-in cell line, sgRNA (SEQ. ID NO: 1) and ssODN (SEQ. ID NO: 2) were designed and synthesized at GenScript.
# RNP complex was generated by mixing of 100 pmol of Cas9 protein to PCR tubes containing 300 pmol sgRNA incubating the resultant complex at room temperature for 20 min. […] ssODN was added to RNP complex slowly and RNP-ssODN complex was incubated at room temperature for 10 min. RNP-ssODN complex was mixed with […] of AsPC-1 cells (1×10^6 cells total) and electroporated using Nucleofactor (Program CM-150). Cells were then incubated at ambient temperature for 5 min and transferred to a six-well plate containing 2 ml growth medium.
# To select pools with the highest luminescence signal, 10^4 cells of parental AsPC-1 and transfected pools were plated in solid white 384-well tissue culture plates. 24 hours after seeding, HiBiT was detected using the Nano-Glo HiBiT Lytic Detection System (Promega) following manufacturer's instructions. Briefly, […] of Nano-Glo HiBiT Lytic Detection Reagent was added directly to the cells and mixed by inversion before recording luminescence on an Envision (Perkin-Elmer) with 0.5 s integration time.
# Single clones were isolated from stable pool by limited dilution method and presence of HiBiT knock-in was verified by TA cloning and subsequent sequencing. Additionally, western blotting analysis was conducted to confirm selection of single clones with high luminescence signal.
# For DC50S measurements, AsPC-1 HiBiT single clone cells were grown in RPMI 1640 medium (Invitrogen 22400-089) supplemented with 10% fetal bovine serum. Cells were seeded in 384-well tissue culture plates at a density of 7,000 cells/well and allowed to attach for 24 hours.
# Test compounds were distributed directly into assay plate with the adjustment for DMSO concentration using Tecan HP D300e. For most of the experiments, the final concentration of compounds starts from 10 μM, 3-fold dilution dose response and 10 doses. […] DMSO final concentration is 1%. Each concentration of exemplary compound was tested as singleton. The negative control wells were cells with DMSO only, and the positive control wells were cells with […] inhibitor.
# Following 24-hour incubation with the compounds plate and Nano-Glo® HiBiT Lytic reagents were equilibrated to room temperature. 20 μL of HiBiT Lytic reagent were added to each well. The assay plate was incubated on digital microplate shaker (350 rpm) for 20 min followed by centrifugation at 500 g for 1 min. Luminescence was recorded using Envision (Perkin-Elmer) using aperture 384-L1 with 0.1 s integration time.
# HiBiT signal are used to calculate the % degradation at given compound concentration using the following formula:
# % Degradation=(1−(Sample HiBiT signal−Ave Min signal)/(Ave Max signal−Ave Min signal))*100%
# For DC50 calculation, the data with the hook effect were removed first and DC50S was reported using a 4-parameter fit of dose response curve using GraphPad in those cases where maximum % degradation was >50% and Minimal % degradation was <50%. The decrease in DC50 reflects that the exemplary compound led to a higher level of degradation of KRasG12D than another exemplary compound at specific timepoint of treatment of cancer cell line. […]
# KRAS G12D = KRAS G12D (Homo sapiens, UniProt P01116, G12D); assay: In-vitro RAS-RAF binding assay (RRB), HTRF/FRET; format: biochemical; parameters: Biotinylated KRAS protein amino acids 1-169 (produced at Erasca); made in house; conditions: Table 2, average of multiple runs of each compound; read-out: Inhibition of RAS-RAF Binding (in-vitro) KRAS (G12D) IC50
# Sequence of KRAS G12D (P01116 1-169 isoform P01116-2 G12D): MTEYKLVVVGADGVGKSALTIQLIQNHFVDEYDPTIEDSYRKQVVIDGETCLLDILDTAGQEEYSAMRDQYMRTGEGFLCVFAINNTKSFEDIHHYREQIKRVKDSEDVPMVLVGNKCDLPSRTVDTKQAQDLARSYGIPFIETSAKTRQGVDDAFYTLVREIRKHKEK
# How it was run: as §1
SMILES,IC50 (KRAS (WT)) [nM],DC50 [1] [nM],IC50 (KRAS G12D) [nM]
"CC(C)[C@@H](C(=O)N1C[C@H](O)C[C@H]1C(=O)N[C@@H](C)c1ccc(-c2c(F)cccc2F)cc1)c1cc(OCC2(C)CCN(CCOc3nc(N4CC5CCC(C4)N5)c4cc(C(F)(F)F)c(-c5ccc(F)c6sc(N)c(C#N)c56)c(F)c4n3)CC2)no1 [Example 74, (2S,4R)-1-((2R)-2-(3-((1-(2-((7-(2-amino-3-cyano-7-fluorobenzo[b]thiophen-4-yl)-4-(3,8-diazabicyclo[3.2.1]octan-3-yl)-8-fluoro-6-(trifluoromethyl)quinazolin-2-yl)oxy)ethyl)-4-methylpiperidin-4-yl)methoxy)isoxazol-5-yl)-3-methylbutanoyl)-N-((S)-1-(2′,6′-difluoro-[1,1′-biphenyl]-4-yl)ethyl)-4-hydroxypyrrolidine-2-carboxamide]",962,185,18.1
"CC(C)[C@@H](C(=O)N1C[C@H](O)C[C@H]1C(=O)N[C@@H](C)c1ccc(-c2c(F)cc(F)cc2F)cc1)c1cc(N2CC3(CCN(CCOc4nc(N5CC6CCC(C5)N6)c5cc(C(F)(F)F)c(-c6ccc(F)c7sc(N)c(C#N)c67)c(F)c5n4)CC3)C2)no1 [Example 75, (2S,4R)-1-((2R)-2-(3-(7-(2-((7-(2-amino-3-cyano-7-fluorobenzo[b]thiophen-4-yl)-4-(3,8-diazabicyclo[3.2.1]octan-3-yl)-8-fluoro-6-(trifluoromethyl)quinazolin-2-yl)oxy)ethyl)-2,7-diazaspiro[3.5]nonan-2-yl)isoxazol-5-yl)-3-methylbutanoyl)-4-hydroxy-N-((S)-1-(2′,4′,6′-trifluoro-[1,1′-biphenyl]-4-yl)ethyl)pyrrolidine-2-carboxamide]",836,843,23.9
"CC(C)[C@@H](C(=O)N1C[C@H](O)C[C@H]1C(=O)N[C@@H](C)c1ccc(-c2c(F)cccc2F)cc1)c1cc(N2CC3(CCN(CCOc4nc(N5CC6CCC(C5)N6)c5cc(C(F)(F)F)c(-c6ccc(F)c7sc(N)c(C#N)c67)c(F)c5n4)CC3)C2)no1 [Example 77, (2S,4R)-1-((2R)-2-(3-(7-(2-((7-(2-amino-3-cyano-7-fluorobenzo[b]thiophen-4-yl)-4-(3,8-diazabicyclo[3.2.1]octan-3-yl)-8-fluoro-6-(trifluoromethyl)quinazolin-2-yl)oxy)ethyl)-2,7-diazaspiro[3.5]nonan-2-yl)isoxazol-5-yl)-3-methylbutanoyl)-N-((S)-1-(2′,6′-difluoro-[1,1′-biphenyl]-4-yl)ethyl)-4-hydroxypyrrolidine-2-carboxamide]",1100,330,17.6

# The remaining lines, values ahead:
IC50 (KRAS (WT)) [nM],DC50 [1] [nM],IC50 (KRAS G12D) [nM],SMILES
> 10000,582,28,"CC(C)[C@@H](C(=O)N1C[C@H](O)C[C@H]1C(=O)N[C@@H](C)c1ccc(-c2c(F)cc(F)cc2F)cc1)c1cc(OCC2CCN(CCOc3nc(N4CC5CCC(C4)N5)c4cc(Cl)c(-c5ccc(F)c6sc(N)c(C#N)c56)c(F)c4n3)CC2)no1 [Example 71, (2S,4R)-1-((2R)-2-(3-((1-(2-((7-(2-amino-3-cyano-7-fluorobenzo[b]thiophen-4-yl)-4-(3,8-diazabicyclo[3.2.1]octan-3-yl)-6-chloro-8-fluoroquinazolin-2-yl)oxy)ethyl)piperidin-4-yl)methoxy)isoxazol-5-yl)-3-methylbutanoyl)-4-hydroxy-N-((S)-1-(2′,4′,6′-trifluoro-[1,1′-biphenyl]-4-yl)ethyl)pyrrolidine-2-carboxamide]"
6730,528,29.4,"CC(C)[C@@H](C(=O)N1C[C@H](O)C[C@H]1C(=O)N[C@@H](C)c1ccc(-c2c(F)cc(F)cc2F)cc1)c1cc(OCC2(C)CCN(CCOc3nc(N4CC5CCC(C4)N5)c4cc(Cl)c(-c5ccc(F)c6sc(N)c(C#N)c56)c(F)c4n3)CC2)no1 [Example 72, (2S,4R)-1-((2R)-2-(3-((1-(2-((7-(2-amino-3-cyano-7-fluorobenzo[b]thiophen-4-yl)-4-(3,8-diazabicyclo[3.2.1]octan-3-yl)-6-chloro-8-fluoroquinazolin-2-yl)oxy)ethyl)-4-methylpiperidin-4-yl)methoxy)isoxazol-5-yl)-3-methylbutanoyl)-4-hydroxy-N-((S)-1-(2′,4′,6′-trifluoro-[1,1′-biphenyl]-4-yl)ethyl)pyrrolidine-2-carboxamide]"
> 10000,349,47.6,"CC(C)[C@@H](C(=O)N1C[C@H](O)C[C@H]1C(=O)N[C@@H](C)c1ccc(-c2c(F)cccc2F)cc1)c1cc(OCC2(F)CCN(CCOc3nc(N4CC5CCC(C4)N5)c4cc(Cl)c(-c5ccc(F)c6sc(N)c(C#N)c56)c(F)c4n3)CC2)no1 [Example 73, (2S,4R)-1-((2R)-2-(3-((1-(2-((7-(2-amino-3-cyano-7-fluorobenzo[b]thiophen-4-yl)-4-(3,8-diazabicyclo[3.2.1]octan-3-yl)-6-chloro-8-fluoroquinazolin-2-yl)oxy)ethyl)-4-fluoropiperidin-4-yl)methoxy)isoxazol-5-yl)-3-methylbutanoyl)-N-((S)-1-(2′,6′-difluoro-[1,1′-biphenyl]-4-yl)ethyl)-4-hydroxypyrrolidine-2-carboxamide]"
1900,259,21.9,"CC(C)[C@@H](C(=O)N1C[C@H](O)C[C@H]1C(=O)N[C@@H](C)c1ccc(-c2c(F)cc(F)cc2F)cc1)c1cc(OCC2(C)CCN(CCOc3nc(N4CC5CCC(C4)N5)c4cc(C(F)(F)F)c(-c5ccc(F)c6sc(N)c(C#N)c56)c(F)c4n3)CC2)no1 [Example 76, (2S,4R)-1-((2R)-2-(3-((1-(2-((7-(2-amino-3-cyano-7-fluorobenzo[b]thiophen-4-yl)-4-(3,8-diazabicyclo[3.2.1]octan-3-yl)-8-fluoro-6-(trifluoromethyl)quinazolin-2-yl)oxy)ethyl)-4-methylpiperidin-4-yl)methoxy)isoxazol-5-yl)-3-methylbutanoyl)-4-hydroxy-N-((S)-1-(2′,4′,6′-trifluoro-[1,1′-biphenyl]-4-yl)ethyl)pyrrolidine-2-carboxamide]"
1670,294,25.5,"CC(C)[C@@H](C(=O)N1C[C@H](O)C[C@H]1C(=O)N[C@@H](C)c1ccc(-c2c(F)cc(F)cc2F)cc1)c1cc(OCC2CCN(CCOc3nc(N4CC5CCC(C4)N5)c4cc(C(F)(F)F)c(-c5ccc(F)c6sc(N)c(C#N)c56)c(F)c4n3)CC2)no1 [Example 78, (2S,4R)-1-((2R)-2-(3-((1-(2-((7-(2-amino-3-cyano-7-fluorobenzo[b]thiophen-4-yl)-4-(3,8-diazabicyclo[3.2.1]octan-3-yl)-8-fluoro-6-(trifluoromethyl)quinazolin-2-yl)oxy)ethyl)piperidin-4-yl)methoxy)isoxazol-5-yl)-3-methylbutanoyl)-4-hydroxy-N-((S)-1-(2′,4′,6′-trifluoro-[1,1′-biphenyl]-4-yl)ethyl)pyrrolidine-2-carboxamide]"
